Structures can show the parent of a compound that is named as a salt.
Key:
IL-6 = test: Tissue level of IL-6 in the myocardium after reperfusion (ELISA); format: ex vivo (isolated Langendorff-perfused heart, dosed in vivo), Sprague-Dawley rats; conditions: 10 mg/kg intraperitoneally; after 60 min reperfusion; mean±SEM; C group 300±80, p<0.05
Procedure: (§1) Sixteen Sprague-Dawley rats (300 g, male) were divided into a control group (“C group,” n=8) and a group administered (−)-ethyl N-{3,5-dichloro-2-hydroxy-4-[2-(4-methylpiperazin-1-yl)ethoxy]benzoyl}-L-phenylalaninate dihydrochloride (“J group,” n=8). All rats were anesthesized by intraperitoneal injection of sodium pentobarbital (50 mg/kg), and either (a) 0.5 mL of saline (C group) or (b) 10 mg/kg of (−)-ethyl N-{3,5-dichloro-2-hydroxy-4-[2-(4-methylpiperazin-1-yl)ethoxy]benzoyl}-L-phenylalaninate dihydrochloride dissolved in 5% mannitol (J group) was administered intraperitoneally to the rats. Anticoagulation was ensured by the intraperitoneal administration of 200 USP units of heparin. […]
(§2) After stabilization, heart rate (HR), left ventricular developed pressure (LVDP), maximum dP/dt (maximum dP/dt), and coronary flow (CF) were measured with LV diastolic pressure stabilized at 10 mm Hg. […] HR, LVDP, maximum dP/dt, and CF were continuously measured after reperfusion and analyzed using a Polygraph System (Nihon Kouden, Japan).
(§3) After 60 minutes of reperfusion, frozen sections of the hearts were made and stored at −80° C. for further assessment. […] The concentrations of tissue inflammatory cytokines were measured using ELISA kits (TNF-α, IL-1β, and IL-6: Biosource International, California; and IL-8: Immuno-Biological Laboratories, Gunma, Japan) according to the manufacturer's recommendation. […]

TNF-α = test: Tissue level of TNF-α in the myocardium after reperfusion (ELISA); set-up: species or system Sprague-Dawley rats; conditions: 10 mg/kg intraperitoneally; after 60 min reperfusion; mean±SEM; C group 550±80, p<0.05
Procedure: as §1, §2, §3

[1] = system: cardiac myocytes (CPK leakage); test: Creatine phosphokinase (CPK) leakage into the coronary effluent after reperfusion; format: ex vivo (isolated perfused hearts from dosed rats), Sprague-Dawley rats; conditions: 10 mg/kg intraperitoneally; coronary effluent for 60 minutes after reperfusion; mean±SEM; C group 140±61, p<0.05
Procedure: as §1
After stabilization, heart rate (HR), left ventricular developed pressure (LVDP), maximum dP/dt (maximum dP/dt), and coronary flow (CF) were measured with LV diastolic pressure stabilized at 10 mm Hg. […] HR, LVDP, maximum dP/dt, and CF were continuously measured after reperfusion and analyzed using a Polygraph System (Nihon Kouden, Japan). […]
There were significant differences between the two groups, however, following global ischemia and reperfusion. FIGS. 1 and 2 depict the cardiac function (as measured by LVDP and maximum dP/dt) after ischemia reperfusion between the C and J groups. For the following parameters, data are expressed as mean±standard error of the mean (SEM). […]

IL-1β = test: Tissue level of IL-1β in the myocardium after reperfusion (ELISA); format: ex vivo (isolated Langendorff-perfused heart after in vivo dosing), Sprague-Dawley rats; conditions: 10 mg/kg intraperitoneally; after 60 min reperfusion; mean±SEM; C group 3700±700, not statistically significantly different
Procedure: as §1, §2, §3

[2] = system: hearts of Sprague-Dawley rats (myocardial ischemia reperfusion injury); test: Cardiac function of isolated Langendorff-perfused rat hearts after 30 min global ischemia and 60 min reperfusion; format: ex vivo
Procedure: Sixteen Sprague-Dawley rats (300 g, male) were divided into a control group (“C group,” n=8) and a group administered (−)-ethyl N-{3,5-dichloro-2-hydroxy-4-[2-(4-methylpiperazin-1-yl)ethoxy]benzoyl}-L-phenylalaninate dihydrochloride (“J group,” n=8). All rats were anesthesized by intraperitoneal injection of sodium pentobarbital (50 mg/kg), and either (a) 0.5 mL of saline (C group) or (b) 10 mg/kg of (−)-ethyl N-{3,5-dichloro-2-hydroxy-4-[2-(4-methylpiperazin-1-yl)ethoxy]benzoyl}-L-phenylalaninate dihydrochloride dissolved in 5% mannitol (J group) was administered intraperitoneally to the rats. Anticoagulation was ensured by the intraperitoneal administration of 200 USP units of heparin.
Ten minutes after the administration of heparin and either (a) saline (C group) or (b) 10 mg/kg of (−)-ethyl N-{3,5-dichloro-2-hydroxy-4-[2-(4-methylpiperazin-1-yl)ethoxy]benzoyl}-L-phenylalaninate dihydrochloride dissolved in 5% mannitol (J group), the hearts of the rats were excised and perfused with modified Krebs-Henseleit buffer (120.0 mM NaCl, 4.5 mM KCl, 20.0 mM NaHCO3, 1.2 mM KH2PO4, 1.2 MgCl2, 2.5 mM CaCl2, and 10.0 mM glucose: gassed with 95% O2+5% CO2 to obtain a pH of 7.4 at 37° C.) at the pressure equal to 1 m H2O by means of a Langendorff apparatus. A thin-wall latex balloon was inserted into the left ventricle through the left atrium to monitor left ventricular pressure and to control left ventricular volume.
After stabilization, heart rate (HR), left ventricular developed pressure (LVDP), maximum dP/dt (maximum dP/dt), and coronary flow (CF) were measured with LV diastolic pressure stabilized at 10 mm Hg. The hearts were subjected to global ischemia at 37° C. for 30 minutes, followed by 60 minutes of reperfusion. The balloon was deflated during ischemia, and the hearts were not paced during reperfusion. HR, LVDP, maximum dP/dt, and CF were continuously measured after reperfusion and analyzed using a Polygraph System (Nihon Kouden, Japan).
There were significant differences between the two groups, however, following global ischemia and reperfusion. FIGS. 1 and 2 depict the cardiac function (as measured by LVDP and maximum dP/dt) after ischemia reperfusion between the C and J groups. For the following parameters, data are expressed as mean±standard error of the mean (SEM). The difference in the data on functional recoveries were determined with one-way repeated measure ANOVA. The difference in the data on CPK leakage and tissue cytokine concentrations were determined with unpaired Student's t test. A p value of less than 0.05 was considered statistically significant.

IL-8 = test: Tissue level of IL-8 in the myocardium after reperfusion (ELISA); format: ex vivo (isolated Langendorff-perfused heart), Sprague-Dawley rats; conditions: 10 mg/kg intraperitoneally; after 60 min reperfusion; mean±SEM; C group 240±40, p<0.05
Procedure: as §1, §2, §3

Which “tissue level of IL-6 in the myocardium after reperfusion” value (IL-6) does the source give for `CCOC(=O)[C@H](Cc1ccccc1)NC(=O)c1cc(Cl)c(OCCN2CCN(C)CC2)c(Cl)c1O` [(−)-ethyl N-{3,5-dichloro-2-hydroxy-4-[2-(4-methylpiperazin-1-yl)ethoxy]benzoyl}-L-phenylalaninate dihydrochloride] here?
The value was 60±7 pg/mg tissue.

And the “tissue level of TNF-α in the myocardium after reperfusion” value (TNF-α)?
The value was 240±30 pg/mg tissue.

What about the “CPK leakage of the coronary effluent” value [1] of the same compound?
Its value is 2.9±2.0 IU/60 minutes.

And the “tissue level of IL-1β in the myocardium after reperfusion” value (IL-1β)?
The value was 2600±200 pg/mg tissue.

What about the “peak value of percent recovery of LVDP after reperfusion” value ([2]; 10 mg/kg intraperitoneally 10 min before heart excision, 30 min global ischemia at 37° C., 60 min reperfusion, percentage of basal LVDP, mean±SEM, C group 39±6%, p<0.05) of the same compound?
Its value is 79±5%.

What about the “peak value of percent recovery of maximum dP/dt after reperfusion” value ([2]; 10 mg/kg intraperitoneally 10 min before heart excision, 30 min global ischemia, 60 min reperfusion, percentage of basal maximum dP/dt, mean±SEM, C group 54±7%, p<0.05) of the same compound?
Its value is 80±4%.

What about the “percent recovery of LVDP versus C group over time” value ([2]; 10 mg/kg intraperitoneally, at 20, 30, 40, 50, and 60 minutes after reperfusion) of the same compound?
The value was “Significant improvements”.

And the “percent recovery of max dP/dt versus C group over time” value ([2]; 10 mg/kg intraperitoneally, at 30, 40, 50, and 60 minutes after reperfusion)?
The value was “significant improvement”.

And the “tissue level of IL-8 in the myocardium after reperfusion” value (IL-8)?
Its value is 68±19 pg/mg tissue.
